Measured values as given in patent publication US9597327B2, “Synthesis of (R)-N-methylnaltrexone” (Progenics Pharmaceuticals, Inc., priority 2005, dated 2017).
Structures can show the parent of a compound that is named as a salt.

Assays:
[1] = opioid agonist / antagonist character of the MNTX stereoisomers (stated, no method given); details: statement in words, no assay described
[2] = test system: chronic opioid user; details: intravenously; subjects receiving opioids chronically; cited from earlier work

SMILES | opioid activity (agonist or antagonist) [1] | dose required to induce immediate laxation [2]
C[N@@+]1(CC2CC2)CC[C@]23c4c5ccc(O)c4OC2C(=O)CCC3(O)C1C5 (stereo partly drawn) [S-MNTX] | opioid agonist | 
C[N+]1(CC2CC2)CC[C@]23c4c5ccc(O)c4O[C@H]2C(=O)CC[C@@]3(O)[C@H]1C5 (stereo partly drawn) [MNTX, Methylnaltrexone] |  | about 0.15 mg/kg
C[N+]1(CC2CC2)CC[C@]23c4c5ccc(O)c4O[C@H]2C(=O)CC[C@@]3(O)[C@H]1C5 (stereo partly drawn) [R-MNTX, morphinanium, 17R, 17-(cyclopropylmethyl)-4,5-epoxy-3,14-dihydroxy-17-methyl-6-oxo-, salt, (5α)-(9Cl)] | opioid antagonist | 
